Format in all cases: functional
The subject of test [1] is PC-3. The test can be described thus: Antiproliferative activity against human PC3 cell line at 1 uM by MTT assay. Background: Formazan colour is commonly taken as a measure of viable cells.
Test [2] has as its system Bcap37. The experiment in a line: Antiproliferative activity against human Bcap37 cell line at 1 uM by MTT assay.
For test [3], the system named is BGC-823. The experiment in a line: Antiproliferative activity against human BGC823 cell line at 5 uM by MTT assay.
Test [4] concerns BGC-823. The test can be described thus: Antiproliferative activity against human BGC823 cell line at 1 uM by MTT assay.
The test system of test [5] is PC-3. The test can be described thus: Antiproliferative activity against human PC3 cell line at 5 uM by MTT assay.
The subject of test [6] is Bcap37. The test can be described thus: Antiproliferative activity against human Bcap37 cell line at 5 uM by MTT assay.

Molecules are shown by their SMILES.

The term inhibition denotes the relative decrease from the control value, in per cent. For `COc1cc(C(=O)N/N=C/c2cccc(C(F)(F)F)c2)cc(OC)c1OC`, the inhibition at 1 µM in the test on PC-3 [1] was 51%; in the test with Bcap37 [2] it was 8.3%; in the test on BGC-823 [4], 17.7%. Besides, the inhibition at 5 µM in the test on BGC-823 [3] came to 33.8%; in the test with PC-3 [5], 79.8%; in the test on Bcap37 [6], 15.5%.
On to `COc1cc(C(=O)N/N=C/c2ccccc2C(F)(F)F)cc(OC)c1OC`, for which the inhibition at 1 µM stood at 45% with PC-3 [1], 56.8% in the test on Bcap37 [2] and 22.1% in the test on BGC-823 [4]. Besides, the inhibition at 5 µM in the test with BGC-823 [3] is 35.6%; with PC-3 [5], 52.9%; in the test on Bcap37 [6], 80%.
For `COc1cc(C2=NN(C(C)=O)C(c3cccc(OC)c3OC)O2)cc(OC)c1OC` (configuration not stated), the inhibition at 1 µM in the test with PC-3 [1] worked out at 35%; in the test with Bcap37 [2] it was 0.1%; in the test on BGC-823 [4], 3.8%. The inhibition at 5 µM was 17.5% with BGC-823 [3], 58.2% in the test on PC-3 [5] and 2.8% in the test with Bcap37 [6].
With `COc1cc(C2=NN(C(C)=O)C(c3ccc(C(F)(F)F)cc3)O2)cc(OC)c1OC` (configuration not stated), the inhibition at 1 µM in the test with PC-3 [1] is -11%; in the test on Bcap37 [2] it was -3.5%; in the test with BGC-823 [4], 4.2%. Further, the inhibition at 5 µM in the test with BGC-823 [3] is 3.4%; with PC-3 [5], -0.7%; in the test with Bcap37 [6], 14.2%.
In the case of `COc1cc(C2=NN(C(C)=O)C(c3cccc(C(F)(F)F)c3)O2)cc(OC)c1OC` (configuration not stated), the inhibition at 1 µM in the test on PC-3 [1] turned out to be 30.1%; in the test with Bcap37 [2], 10.1%; with BGC-823 [4], 27.9%. Besides, the figures for the inhibition at 5 µM in the test on BGC-823 [3], in the test with PC-3 [5] and in the test with Bcap37 [6] were 41.1%, 43.6% and 35.5%, respectively.
As for `COc1cc(C(=O)N/N=C/c2c(Cl)cccc2Cl)cc(OC)c1OC`, the values for the inhibition at 1 µM with PC-3 [1], in the test on Bcap37 [2] and with BGC-823 [4] were 43%, -7.2% and 0.9%, respectively. Further, the inhibition at 5 µM stood at 27.8% in the test on BGC-823 [3], 52.1% in the test with PC-3 [5] and 2.9% with Bcap37 [6].
Consider `COc1cc(C2=NN(C(C)=O)C(c3ccccc3F)O2)cc(OC)c1OC` (configuration not stated), for which the figures for the inhibition at 1 µM with PC-3 [1], with Bcap37 [2] and in the test on BGC-823 [4] were 13.5%, -1.5% and 29.6%, respectively. Further, the figures for the inhibition at 5 µM with BGC-823 [3], with PC-3 [5] and in the test with Bcap37 [6] were 32.8%, 31.6% and -2%, respectively.
Regarding `COc1cc(C2=NN(C(C)=O)C(c3ccc(F)c(F)c3)O2)cc(OC)c1OC` (configuration not stated), the figures for the inhibition at 1 µM with PC-3 [1], with Bcap37 [2] and with BGC-823 [4] were 35.5%, -1.3% and 18.3%, respectively. Further, the inhibition at 5 µM with BGC-823 [3] was 21.6%; in the test with PC-3 [5], 46.9%; with Bcap37 [6], 2.3%.
For `COc1cc(C2=NN(C(C)=O)C(c3ccc(F)cc3)O2)cc(OC)c1OC` (configuration not stated), the inhibition at 1 µM was 0% with PC-3 [1], -1.4% with Bcap37 [2] and -0.4% in the test with BGC-823 [4]. Also, the inhibition at 5 µM in the test on BGC-823 [3] was 13.3%; in the test with PC-3 [5], 0.1%; in the test with Bcap37 [6], -0.1%.
With `COc1cc(C2=NN(C(C)=O)C(c3ccccc3C(F)(F)F)O2)cc(OC)c1OC` (configuration not stated), the inhibition at 1 µM in the test with PC-3 [1] is -11%; with Bcap37 [2], -1.2%; with BGC-823 [4], 31.8%. In addition, the inhibition at 5 µM in the test on BGC-823 [3] was 34.8%; with PC-3 [5], 15.2%; with Bcap37 [6], 16.2%.
In the case of `COc1cc(C(=O)N/N=C/c2ccc(Cl)c(Cl)c2)cc(OC)c1OC`, the inhibition at 1 µM in the test with PC-3 [1] stood at 13.5%; in the test with Bcap37 [2] it was 0.1%; in the test with BGC-823 [4], 29.6%. The inhibition at 5 µM in the test on BGC-823 [3] turned out to be 32.7%; in the test on PC-3 [5], 31.6%; in the test on Bcap37 [6], 0.6%.
Consider `COc1cc(C(=O)N/N=C/c2ccc(F)c(F)c2)cc(OC)c1OC`, for which the inhibition at 1 µM worked out at 35.1% in the test with PC-3 [1], 58.5% in the test with Bcap37 [2] and 33.1% in the test with BGC-823 [4]. Also, the inhibition at 5 µM in the test on BGC-823 [3] turned out to be 51.9%; in the test on PC-3 [5], 43.7%; in the test on Bcap37 [6], 68.2%.
For the compound `COc1cc(C2=NN(C(C)=O)C(c3cc(OC)c(OC)c(OC)c3)O2)cc(OC)c1OC` (configuration not stated), the results for the inhibition at 1 µM in the test on PC-3 [1], with Bcap37 [2] and with BGC-823 [4] were -1.8%, 5.1% and -1.8%, respectively. Also, the inhibition at 5 µM with BGC-823 [3] is -1.4%; with PC-3 [5] it was 0.1%; in the test on Bcap37 [6], 5.4%.
On to `COc1cc(C(=O)N/N=C/c2ccc(F)cc2)cc(OC)c1OC`, for which the inhibition at 1 µM was found to be 76% in the test with PC-3 [1], 50.2% in the test on Bcap37 [2] and 50.9% in the test on BGC-823 [4]. Further, the results for the inhibition at 5 µM in the test with BGC-823 [3], in the test on PC-3 [5] and with Bcap37 [6] were 61.1%, 82.8% and 55.5%, respectively.
Regarding `COc1cc(C2=NN(C(C)=O)C(c3ccc(Cl)c([N+](=O)[O-])c3)O2)cc(OC)c1OC` (configuration not stated), the inhibition at 1 µM in the test on PC-3 [1] was 43.3%; in the test with Bcap37 [2], -2.9%; with BGC-823 [4] it was -2.3%. Moreover, the inhibition at 5 µM in the test on BGC-823 [3] turned out to be 0%; in the test with PC-3 [5], 61.4%; in the test on Bcap37 [6], 1%.
Regarding `COc1cc(C2=NN(C(C)=O)C(c3c(Cl)cccc3Cl)O2)cc(OC)c1OC` (configuration not stated), the inhibition at 1 µM is 5.1% in the test on PC-3 [1], 9.3% in the test on Bcap37 [2] and -1.4% in the test on BGC-823 [4]. Also, the inhibition at 5 µM in the test on BGC-823 [3] was 15.9%; with PC-3 [5], -2.2%; in the test on Bcap37 [6], 45.8%.
Turning to `COc1cc(C(=O)N/N=C/c2ccccc2F)cc(OC)c1OC`, the inhibition at 1 µM was 70.6% in the test on PC-3 [1], 58.9% in the test on Bcap37 [2] and 51.6% with BGC-823 [4]. Also, the inhibition at 5 µM with BGC-823 [3] worked out at 76.5%; in the test on PC-3 [5], 81.8%; in the test on Bcap37 [6], 81.8%.
In the case of `COc1ccc(/C=N/NC(=O)c2cc(OC)c(OC)c(OC)c2)c(OC)c1`, the figures for the inhibition at 1 µM in the test on PC-3 [1], with Bcap37 [2] and in the test on BGC-823 [4] were 10%, -3% and -6.9%, respectively. Further, the inhibition at 5 µM with BGC-823 [3] was 3.6%; in the test with PC-3 [5], 22.2%; in the test on Bcap37 [6] it was -0.1%.
Take `COc1cc(C2=NN(C(C)=O)C(c3ccc(Cl)c(Cl)c3)O2)cc(OC)c1OC` (configuration not stated): the inhibition at 1 µM with PC-3 [1] was 28.1%; with Bcap37 [2] it was -3.2%; with BGC-823 [4] it was -0.8%. For the same compound, the figures for the inhibition at 5 µM with BGC-823 [3], with PC-3 [5] and in the test with Bcap37 [6] were 3.1%, 26.1% and 0%, respectively.
For `COc1cc(C(=O)N/N=C/c2cccc(F)c2)cc(OC)c1OC`, the inhibition at 1 µM in the test on PC-3 [1] came out at 53.5%; in the test with Bcap37 [2], 38%; in the test on BGC-823 [4], 13.6%. In addition, the inhibition at 5 µM in the test on BGC-823 [3] was 44.8%; with PC-3 [5], 64.1%; in the test with Bcap37 [6] it was 49%.
Consider `COc1cc(/C=N/NC(=O)c2cc(OC)c(OC)c(OC)c2)cc(OC)c1OC`, for which the inhibition at 1 µM in the test on PC-3 [1] was 8.5%; with Bcap37 [2] it was 11.8%; in the test on BGC-823 [4], -5%. Further, the inhibition at 5 µM amounted to 22.9% in the test with BGC-823 [3], 48.3% with PC-3 [5] and 13.6% in the test with Bcap37 [6].
For `COc1cc(C(=O)N/N=C/c2ccc(Cl)c([N+](=O)[O-])c2)cc(OC)c1OC`, the inhibition at 1 µM in the test on PC-3 [1] was 32.1%; in the test on Bcap37 [2], -4.4%; in the test on BGC-823 [4], -5.8%. In addition, the inhibition at 5 µM came to 2.3% in the test on BGC-823 [3], 42.3% with PC-3 [5] and 9.6% in the test with Bcap37 [6].

(Values after ChEMBL document CHEMBL1149507, “Synthesis, structure, and bioactivity of N'-substituted benzylidene-3,4,5-trimethoxybenzohydrazide and 3-acetyl-2-substituted phenyl-5-(3,4,5-trimethoxyphenyl)-2,3-dihydro-1,3,4-oxadiazole derivatives” (Bioorg Med Chem Lett, 2006).)
